Data as given in patent US6476034B2, “Antiviral azaindole derivatives” (priority 2000, dated 2002).
pEC50: −log10 of the molar value.

Test system: single-round infectious HIV-1 reporter virus
Assay: microbe, parasite or virus in culture
Type: cell-based
Conditions: for pEC50: Human immunodeficiency virus 1, HeLa-CD4/CCR5; for inhibition at 10 µM: Human immunodeficiency virus 1, HeLa-CD4/CCR5, 72 h, read-out: Average % inhibition at or <10 μM; for Average % inhibition at or <10 μM: HeLa CD4 CCR5 cells, luciferase expression 3 days (72 hours) after infection, compounds tested below 10 μM: % inhibition at 10 μM extrapolated with XLfit, mean of at least two experiments

Structure (SMILES) | pEC50 | inhibition at 10 µM | Average % inhibition at or <10 μM
C[C@@H]1CN(C(=O)c2ccccc2)[C@@H](C)CN1C(=O)C(=O)c1c[nH]c2ncccc12 (relative stereo) [Compound 5i, trans-N-(benzoyl)-2,5-dimethyl-N′-[(7-azaindol-3-yl)-oxoacetyl]-piperazine] | > 6.00 | 89% | 
C[C@@H]1CN(C(=O)c2ccccc2)CCN1C(=O)C(=O)c1c[nH]c2ncccc12 [Compound 5a, (R)-N-(benzoyl)-3-methyl-N′-[(7-azaindol-3-yl)-oxoacetyl]-piperazine] | > 6.00 | > 99% | 
CC(C)C1CN(C(=O)c2ccccc2)CCN1C(=O)C(=O)c1c[nH]c2ncccc12 (stereo not shown) [Compound 5ab, N-(benzoyl)-3-iso-Propyl-N′-[(7-azaindol-3-yl)-oxoacetyl]-piperazine] | < 6.30 |  | 
CC(C)C1CN(C(=O)C(=O)c2c[nH]c3ncccc23)CCN1C(=O)c1ccccc1 (stereo not shown) [Compound 5ac, N-(benzoyl)-2-iso-Propyl-N′-[(7-azaindol-3-yl)-oxoacetyl]-piperazine] | < 6.40 |  | 
CC(C)C1CN(C(=O)c2c[nH]c3ncccc23)CCN1C(=O)c1ccccc1 (stereo not shown) [Compound 5ad, N-(benzoyl)-2-iso-Propyl-N′-[(7-azaindol-3-yl)-carbonyl]-piperazine] | < 6.30 |  | 
C[C@@H]1CN(C(=O)c2ccccc2)CCN1C(=O)C(=O)c1c[nH]c2nccc(O)c12 [Compound 5ah, (R)-N-(benzoyl)-3-methyl-N′-[(4-hydroxyl-7-azaindol-3-yl)-oxoacetyl]-piperazine] | < 5.30 |  | 
CC1CN(C(=O)c2ccccc2)CCN1C(=O)C(=O)c1c[nH]c2ncccc12 (stereo not shown) [Compound 5ai, N-(benzoyl)-3-methyl-N′-[(7-azaindol-3-yl)-oxoacetyl]-piperazine] | > 6.00 |  | 
Cc1cc(Cl)nc2c(C(=O)C(=O)N3CCN(C(=O)c4ccccc4)C[C@H]3C)c[nH]c12 [Compound 5ak, (R)-N-(benzoyl)-3-Methyl-N′-[(5-Chloro-7-methyl-4-azaindol-3-yl)-oxoacetyl]-piperazine] | > 6.00 |  | 
COc1cnc(Cl)c2[nH]cc(C(=O)C(=O)N3CCN(C(=O)c4ccccc4)CC3)c12 [Compound 5an, N-(benzoyl)-N′-[(7-chloro-4-methoxy-6-azaindol-3-yl)-oxoacetyl]piperazine] | > 6.00 |  | 
COc1ncc(OC)c2c(C(=O)C(=O)N3CCN(C(=O)c4ccccc4)CC3)c[nH]c12 [Compound 5ao, N-(benzoyl)-N′-[(4,7-dimethoxy-6-azaindol-3-yl)-oxoacetyl]piperazine] | > 6.00 |  | 
COc1ncc(OC)c2c(C(=O)C(=O)N3CCN(C(=O)c4ccccc4)C[C@H]3C)c[nH]c12 [Compound 5ap, ®-N-(benzoyl)-3-methyl-N′-[(4,7-dimethoxy-6-azaindol-3-yl)-oxoacetyl]piperazine] | > 6.00 |  | 
CCC1CN(C(=O)C(=O)c2c[nH]c3ncccc23)CCN1C(=O)c1ccccc1 (stereo not shown) [Compound 5b, N-(benzoyl)-2-ethyl-N′-[(7-azaindol-3-yl)-oxoacetyl]-piperazine] | > 6.00 | 90% | 
CCC1CN(C(=O)c2c[nH]c3ncccc23)CCN1C(=O)c1ccccc1 (stereo not shown) [Compound 5c, N-(benzoyl)-2-ethyl-N′-[(7-azaindol-3-yl)-carbonyl]-piperazine] | > 6.00 | 80% | 
O=C(C(=O)N1CCN(C(=O)c2ccccc2)CC1)c1c[nH]c2ncccc12 [Compound 5d, N-(benzoyl)-N′-[(7-azaindol-3-yl)-oxoacetyl]-piperazine] | > 6.00 | 98% | 
CC1CN(C(=O)C(=O)c2c[nH]c3ncccc23)CCN1C(=O)c1ccccc1 (stereo not shown) [Compound 5e, N-(benzoyl)-2-methyl-N′-[(7-azaindol-3-yl)-oxoacetyl]-piperazine] | > 6.00 | 80% | 
C[C@H]1CN(C(=O)c2ccccc2)CCN1C(=O)C(=O)c1c[nH]c2ncccc12 [Compound 5f, (S)-N-(benzoyl)-3-methyl-N′-[(7-azaindol-3-yl)-oxoacetyl]-piperazine] | > 6.00 | 80% | 
CCC1CN(C(=O)c2ccccc2)CCN1C(=O)C(=O)c1c[nH]c2ncccc12 (stereo not shown) [Compound 5g, N-(benzoyl)-3-ethyl-N′-[(7-azaindol-3-yl)-oxoacetyl]-piperazine] | > 6.00 | 70% | 
CC1(C)CN(C(=O)c2ccccc2)CCN1C(=O)C(=O)c1c[nH]c2ncccc12 [Compound 5h, N-(benzoyl)-3,3-dimethyl-N′-[(7-azaindol-3-yl)-oxoacetyl]-piperazine] | 5.30 to 6.00 | 80% | 
C[C@@H]1CN(c2ccccn2)CCN1C(=O)C(=O)c1c[nH]c2ncccc12 [Compound 5k, (R)-N-(pyridin-2-yl)-3-methyl/N′-[(7-azaindol-3-yl)-oxoacetyl]-piperazine] |  |  | >99%

Structure (SMILES) | pEC50 | inhibition at 10 µM | Average % inhibition at or <10 μM
C[C@@H]1CN(c2ccc(Br)o2)CCN1C(=O)C(=O)c1c[nH]c2ncccc12 [Compound 5l, (R)-N-(5-bromo-furan-2-yl)-3-methyl-N′-[(7-azaindol-3-yl)-oxoacetyl]-piperazine] | > 6.00 | > 99% | 
C[C@@H]1CN(C(=O)c2ccccc2)CCN1C(=O)C(=O)c1c[nH]c2ccncc12 [Compound 5m, (R)-N-(benzoyl)-3-methyl-N′-[(5-azaindol-3-yl)-oxoacetyl]-piperazine] | < 6.30 | 60% | 
COc1ccnc2[nH]cc(C(=O)C(=O)N3CCN(C(=O)c4c(F)c(F)c(N=[N+]=[N-])c(F)c4F)C[C@H]3C)c12 [Compound 5n, (R)-N-(4-azido-2,3,5,6-tetra-fluorobenzoyl)-3-methyl-N′-[(4-methoxy-7-azaindol-3-yl)-oxoacetyl]-piperazine] | > 6.00 | 93% | 
O=C(C(=O)N1CCN(C(=O)c2ccccc2)CC1)c1c[nH]c2cnccc12 [Compound 5p, N-(benzoyl)-N′-[(6-azaindol-3-yl)-oxoacetyl]-piperazine] | < 6.30 | 40% | 
CC1CN(C(=O)c2ccccc2)CCN1C(=O)C(=O)c1c[nH]c2cnccc12 (stereo not shown) [Compound 5q, N-(benzoyl)-3-Methyl-N′[(6-azaindol-3-yl)-oxoacetyl]-piperazine] | > 6.00 | 97% | 
C[C@@H]1CN(C(=O)c2ccccc2)CCN1C(=O)C(=O)c1c[nH]c2cnccc12 [Compound 5r, (R)-N-(benzoyl)-3-Methyl-N′-[(6-azaindol-3-yl)-oxoacetyl]-piperazine] | > 6.00 | > 99% | 
C[C@H]1CN(C(=O)c2ccccc2)CCN1C(=O)C(=O)c1c[nH]c2cnccc12 [Compound 5s, (S)-N-(benzoyl)-3-Methyl-N′-[(6-azaindol-3-yl)-oxoacetyl]-piperazine] | < 6.30 | 56% | 
O=C(C(=O)N1CCN(C(=O)c2ccccc2)CC1)c1c[nH]c2c(Cl)nccc12 [Compound 5t, N-(benzoyl)-N′-[(7-Chloro-6-azaindol-3-yl)-oxoacetyl]-piperazine] | > 6.00 | > 99% | 
C[C@@H]1CN(C(=O)c2ccccc2)CCN1C(=O)C(=O)c1c[nH]c2c(Cl)nccc12 [Compound 5u, (R)-N-(benzoyl)-3-Methyl-N′-[(7-Chloro-6-azaindol-3-yl)-oxoacetyl]-piperazine] | > 6.00 | 99% | 
COc1nccc2c(C(=O)C(=O)N3CCN(C(=O)c4ccccc4)C[C@H]3C)c[nH]c12 [Compound 5v, (R)-N-(benzoyl)-3-Methyl-N′-[(7-Methoxy-6-azaindol-3-yl)-oxoacetyl]-piperazine] | > 6.00 | > 99% | 
C[C@@H]1CN(C(=O)c2ccccc2)CCN1C(=O)C(=O)c1c[nH]c2cccnc12 [Compound 5w, (R)-N-(benzoyl)-3-Methyl-N′-[(4-azaindol-3-yl)-oxoacetyl]-piperazine] | > 6.00 | 98% | 
Cc1ccnc2c(C(=O)C(=O)N3CCN(C(=O)c4ccccc4)C[C@H]3C)c[nH]c12 [Compound 5x, (R)-N-(benzoyl)-3-Methyl-N′-[(7-Methyl-4-azaindol-3-yl)-oxoacetyl]-piperazine] | > 6.00 | 99% | 
C[C@@H]1CN(C(=O)c2ccccc2)CCN1C(=O)C(=O)c1c[nH]c2c(Cl)ccnc12 [Compound 5y, (R)-N-(benzoyl)-3-Methyl-N′-[(7-Chloro-4-azaindol-3-yl)-oxoacetyl]-piperazine] | > 6.00 | > 99% | 
COc1ccnc2c(C(=O)C(=O)N3CCN(C(=O)c4ccccc4)C[C@H]3C)cn(C)c12 [Compound 5z, (R)-N-(benzoyl)-3-Methyl-N′-[(7-Methoxy-1-methyl-4-azaindol-3-yl)-oxoacetyl]-piperazine] | > 6.00 | 97% | 
C[C@@H]1CN(C(=O)c2ccccc2)CCN1C(=O)C(=O)c1c[nH]c2c1ccc[n+]2[O-] [Compound 8a, (R)-N-(benzoyl)-3-methyl-N′-[(7-oxide-7-azaindol-3-yl)-oxoacetyl]-piperazine] |  |  | 90%
C[C@@H]1CN(C(=O)c2ccccc2)CCN1C(=O)C(=O)c1c[nH]c2c[n+]([O-])ccc12 [Compound 8b, (R)-N-(benzoyl)-3-methyl-N′-[(6-oxide-6-azaindol-3-yl)-oxoacetyl]-piperazine] |  |  | 91%
C[C@@H]1CN(C(=O)c2ccccc2)CCN1C(=O)C(=O)c1c[nH]c2nccc(Cl)c12 [Compound 9a, (R)-N-(benzoyl)-3-methyl-N′-[(4-chloro-7-azaindol-3-yl)-oxoacetyl]-piperazine] | > 6.00 | > 99% | 
C[C@@H]1CN(C(=O)c2ccccc2)CCN1C(=O)C(=O)c1c[nH]c2nc(Cl)ccc12 [Compound 9b, (R)-N-(benzoyl)-3-methyl-N′-[(6-chloro-7-azaindol-3-yl)-oxoacetyl]-piperazine] | > 6.00 | > 99% | 
C[C@@H]1CN(C(=O)c2ccccc2)CCN1C(=O)C(=O)c1c[nH]c2nc(F)cc([N+](=O)[O-])c12 [Compound 10a, (R)-N-(benzoyl)-3-methyl-N′-[(4-nitro-6-fluoro-7-azaindol-3-yl)-oxoacetyl]-piperazine] | > 6.00 | > 99% | 
